Publication PMC7707092, “Discovery and characterization of ORM‐11372, a novel inhibitor of the sodium‐calcium exchanger with positive inotropic activity” (British Journal of Pharmacology, 2020)

Assays:
[1] = target: T1, human NaV1.5 channel current (I Na) (Homo sapiens, UniProt Q14524); assay: NaV1.5 channel current (I Na), patch‐clamp in HEK cells; assay type: cell-based; details: room temperature
T1 construct: host or cells: HEK 293, transient (lipofectamine)
Excerpt: The hERG‐encoded voltage‐dependent potassium channel current (I hERG) cells to be studied were harvested with Detachin solution and either diluted with a volume of CHO cell serum‐free media (supplemented with 100 IU·ml^−1 of penicillin/streptomycin and 25‐mM HEPES) to obtain cells, for which the cell density was ~4 x10^6 cells·ml^−1, or plated on glass coverslips and used on the following 1–2 days. HEK 293 cells were transiently transfected using lipofectamine (Invitrogen, USA), with a human sodium voltage‐gated channel subunit 5 (hSCN5) A (transcript variant 2)‐containing plasmid, in Optimem medium. After a 5‐h incubation period, the transfection medium was replaced with the normal growth medium. The cells were harvested by trypsinization, centrifuged and resuspended in the appropriate extracellular solution for performing studies the next day. CHO–5‐HT2B cells were plated into 96‐well plates on the previous day, at a density of 4 x10^4 cells per well, with a modified version of the growth media.
Manual patch‐clamp recordings of membrane currents (I NCX, L‐type Ca^2+ channel current [I CaL], human cardiac sodium 1.5 current [I Na], and I hERG) were undertaken using either an Axopatch 200B or Axopatch ID amplifier (Molecular Devices, USA), using the whole‐cell configuration. […]

5‐HT2A receptor = 5‐HT2A receptor (Homo sapiens, UniProt P28223); assay: Radioligand binding selectivity panel (Eurofins Cerep); details: read-out: inhibition of specific ligand binding
Description: (§1) Radioligand binding assays were performed at Eurofins Cerep SA (Celle L'Evescault, France), for testing the inhibition capacity of ORM‐11372 (at 10 μM with two replicates), in over 75 targets. These included receptors (e.g., human A1, A2A, and A3 adenosine receptors; α1 and α2 adrenoceptors; human β1–β3 adrenergic receptors; human D1, D2S, D3, D4.4, and D5 dopamine receptors; EGF and VEGF receptors; human M1–M5 muscarinic ACh receptors; human 5‐HT1A, 5‐HT2A, 5‐HT2B, 5‐HT2C, 5‐HT4e, 5‐HT5A, 5‐HT6, and 5‐HT7 receptors), ion channels (5‐HT3, Ca^2+, ATP‐dependent potassium channel [KATP], voltage‐dependent potassium channel [KV], small‐conductance calcium‐dependent potassium channel [SKCa], Na^+, and Cl^−), and transporters (adenosine, noradrenaline, dopamine, and 5‐HT). Follow‐up functional studies (with five concentrations and two replicates) were performed for 5‐HT2A receptors and noradrenaline transporter. Agonism and antagonism at h5‐HT2A receptors was explored in recombinant HEK 293 cells and intracellular calcium changes were detected using fluorimetry. Noradrenaline uptake was measured by carrying out scintillation counting of [^3H]noradrenaline incorporated into rat hypothalamus synaptosomes.

5‐HT2B receptor = 5‐HT2B receptor (Homo sapiens, UniProt P41595); assay: as above; details: read-out: inhibition of specific ligand binding
Description: as §1

Na^+/K^+‐ATPase = assay: as above; details: 10 μM
Description: as §1

[2] = target: noradrenaline transporter (Homo sapiens, UniProt P23975); assay: as above; details: read-out: inhibition of specific ligand binding
Description: as §1

[3] = target: peripheral benzodiazepine receptor (Rattus norvegicus, UniProt P16257); assay: as above; details: read-out: inhibition of specific ligand binding
Description: as §1

ryanodine receptor = assay: as above; details: 10 μM
Description: as §1

Chain of 5‐HT2B receptor (P41595 whole entry): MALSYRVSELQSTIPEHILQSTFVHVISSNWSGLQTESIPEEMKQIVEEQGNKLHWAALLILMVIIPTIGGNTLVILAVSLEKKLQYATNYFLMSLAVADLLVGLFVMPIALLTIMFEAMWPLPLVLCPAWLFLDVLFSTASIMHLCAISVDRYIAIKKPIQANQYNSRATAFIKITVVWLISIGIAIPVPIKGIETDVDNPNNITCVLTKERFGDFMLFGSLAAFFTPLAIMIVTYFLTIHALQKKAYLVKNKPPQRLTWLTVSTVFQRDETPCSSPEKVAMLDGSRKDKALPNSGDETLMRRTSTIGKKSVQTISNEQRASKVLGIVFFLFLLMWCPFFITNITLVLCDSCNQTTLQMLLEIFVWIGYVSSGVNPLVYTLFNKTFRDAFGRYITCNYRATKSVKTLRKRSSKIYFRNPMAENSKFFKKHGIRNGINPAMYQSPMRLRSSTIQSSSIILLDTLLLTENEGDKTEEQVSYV
Chain of 5‐HT2A receptor (P28223 whole entry): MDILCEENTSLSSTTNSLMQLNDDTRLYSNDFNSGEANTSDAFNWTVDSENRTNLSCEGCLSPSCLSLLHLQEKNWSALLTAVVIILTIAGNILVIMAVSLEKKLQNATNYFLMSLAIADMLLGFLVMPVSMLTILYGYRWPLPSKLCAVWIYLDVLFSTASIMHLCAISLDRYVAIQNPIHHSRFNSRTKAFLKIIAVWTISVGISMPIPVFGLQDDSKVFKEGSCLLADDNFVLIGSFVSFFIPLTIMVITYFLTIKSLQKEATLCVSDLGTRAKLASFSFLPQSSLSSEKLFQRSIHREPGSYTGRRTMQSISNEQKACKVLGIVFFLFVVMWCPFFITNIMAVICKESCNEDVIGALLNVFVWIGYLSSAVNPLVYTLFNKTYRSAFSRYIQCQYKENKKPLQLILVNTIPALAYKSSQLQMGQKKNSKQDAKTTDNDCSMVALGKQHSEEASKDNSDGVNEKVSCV
T1 sequence (Q14524 1-2015 isoform Q14524-2): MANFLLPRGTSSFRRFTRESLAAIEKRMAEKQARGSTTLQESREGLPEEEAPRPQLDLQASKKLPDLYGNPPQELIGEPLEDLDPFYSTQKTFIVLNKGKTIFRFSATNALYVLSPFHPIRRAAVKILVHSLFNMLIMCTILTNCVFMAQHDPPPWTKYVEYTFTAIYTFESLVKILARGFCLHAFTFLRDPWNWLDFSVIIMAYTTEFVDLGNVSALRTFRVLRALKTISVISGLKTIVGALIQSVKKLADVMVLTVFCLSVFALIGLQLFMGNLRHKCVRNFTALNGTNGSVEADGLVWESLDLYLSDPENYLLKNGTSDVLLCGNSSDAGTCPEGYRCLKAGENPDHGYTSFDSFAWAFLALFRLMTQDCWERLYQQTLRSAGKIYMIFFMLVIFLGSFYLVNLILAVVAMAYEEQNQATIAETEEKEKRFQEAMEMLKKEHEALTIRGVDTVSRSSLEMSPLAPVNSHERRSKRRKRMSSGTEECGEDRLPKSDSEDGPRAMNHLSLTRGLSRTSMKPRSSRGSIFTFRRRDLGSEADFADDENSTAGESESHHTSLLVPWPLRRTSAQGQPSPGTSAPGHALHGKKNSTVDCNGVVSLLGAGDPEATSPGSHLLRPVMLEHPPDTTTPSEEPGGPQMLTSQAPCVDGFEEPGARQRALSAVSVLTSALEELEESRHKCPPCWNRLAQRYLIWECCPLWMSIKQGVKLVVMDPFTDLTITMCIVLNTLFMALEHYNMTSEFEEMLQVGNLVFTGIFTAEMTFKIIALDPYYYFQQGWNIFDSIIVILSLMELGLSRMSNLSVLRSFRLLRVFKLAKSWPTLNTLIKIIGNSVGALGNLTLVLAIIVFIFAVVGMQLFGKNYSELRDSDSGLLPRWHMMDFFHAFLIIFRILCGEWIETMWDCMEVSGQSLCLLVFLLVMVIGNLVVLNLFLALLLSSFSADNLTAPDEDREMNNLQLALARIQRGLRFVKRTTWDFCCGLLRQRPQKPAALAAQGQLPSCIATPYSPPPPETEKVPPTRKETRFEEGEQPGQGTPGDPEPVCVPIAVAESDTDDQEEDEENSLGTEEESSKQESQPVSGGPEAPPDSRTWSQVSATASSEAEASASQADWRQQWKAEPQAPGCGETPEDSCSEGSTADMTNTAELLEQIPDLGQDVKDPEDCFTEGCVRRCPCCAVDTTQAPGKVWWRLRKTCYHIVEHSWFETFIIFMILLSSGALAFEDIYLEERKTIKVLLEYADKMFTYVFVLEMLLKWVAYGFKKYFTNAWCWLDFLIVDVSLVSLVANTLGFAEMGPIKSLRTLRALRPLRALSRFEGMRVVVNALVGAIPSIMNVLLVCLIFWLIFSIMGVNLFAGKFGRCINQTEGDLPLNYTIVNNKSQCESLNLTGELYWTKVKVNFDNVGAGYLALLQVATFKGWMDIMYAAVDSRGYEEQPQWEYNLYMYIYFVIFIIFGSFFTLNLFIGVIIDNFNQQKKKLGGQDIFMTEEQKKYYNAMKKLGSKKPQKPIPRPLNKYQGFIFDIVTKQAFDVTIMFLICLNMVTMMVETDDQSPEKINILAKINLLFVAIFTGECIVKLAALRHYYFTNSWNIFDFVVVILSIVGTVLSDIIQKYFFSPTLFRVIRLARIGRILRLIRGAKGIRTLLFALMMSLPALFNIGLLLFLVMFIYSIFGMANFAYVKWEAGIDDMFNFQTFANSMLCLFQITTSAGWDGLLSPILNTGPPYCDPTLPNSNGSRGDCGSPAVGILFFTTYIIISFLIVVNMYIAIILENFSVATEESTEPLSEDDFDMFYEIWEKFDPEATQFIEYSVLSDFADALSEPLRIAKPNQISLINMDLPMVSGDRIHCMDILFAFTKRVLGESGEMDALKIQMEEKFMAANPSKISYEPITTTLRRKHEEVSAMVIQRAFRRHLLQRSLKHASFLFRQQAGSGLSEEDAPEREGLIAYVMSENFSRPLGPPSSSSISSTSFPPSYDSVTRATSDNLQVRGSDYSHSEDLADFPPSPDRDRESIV
Chain of noradrenaline transporter (P23975 whole entry): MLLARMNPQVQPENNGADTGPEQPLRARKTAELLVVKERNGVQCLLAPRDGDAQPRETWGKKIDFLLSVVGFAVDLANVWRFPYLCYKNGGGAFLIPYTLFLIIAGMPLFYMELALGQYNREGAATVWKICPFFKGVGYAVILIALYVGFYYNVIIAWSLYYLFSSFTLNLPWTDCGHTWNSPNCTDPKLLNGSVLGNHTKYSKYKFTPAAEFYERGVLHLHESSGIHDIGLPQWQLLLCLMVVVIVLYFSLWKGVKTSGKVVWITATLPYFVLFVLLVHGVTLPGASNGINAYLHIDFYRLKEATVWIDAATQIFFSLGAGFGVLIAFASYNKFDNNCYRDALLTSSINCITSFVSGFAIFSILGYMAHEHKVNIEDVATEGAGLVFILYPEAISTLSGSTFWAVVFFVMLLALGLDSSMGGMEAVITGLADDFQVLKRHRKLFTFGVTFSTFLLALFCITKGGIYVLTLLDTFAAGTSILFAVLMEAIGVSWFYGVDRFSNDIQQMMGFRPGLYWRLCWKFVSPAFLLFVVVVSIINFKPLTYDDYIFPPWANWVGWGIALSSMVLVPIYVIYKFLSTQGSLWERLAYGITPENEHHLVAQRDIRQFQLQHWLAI

Nc1cccc(-c2ccc(CNc3ccc(F)cc3)o2)c1 [ORM‐11372]
IC50 [1]: 23.2 µM | inhibition at 10 µM (5‐HT2A receptor): > 50% | inhibition at 10 µM (5‐HT2B receptor): > 50% | inhibition of specific ligand binding (Na^+/K^+‐ATPase): 11% | inhibition at 10 µM [2]: > 50% | inhibition at 10 µM [3]: > 50% | inhibition of specific ligand binding (ryanodine receptor): 15%
